Source: patent US12076307B2, “Compositions for prevention or treatment of acute radiation syndrome and other radiation exposure” (priority 2017, dated 2024)

Tests used:
[1] = test system: BALB/c mice, 6.11 Gy γ-radiation TBI; assay: LD70/30 (6.11 Gy) ARS model: survival, life span, body weight, EC-18 10/50/250 mg/kg; format: in vivo, mouse; details: for improvement of survival vs control group / ≥10% Body Weight Loss, % / ≥20% Body Weight Loss, % / Average life span / Median survival / No. of mice that survived/total / Survivability / Survival: 6.11 Gy; for No. of mice that survived/total / Survivability / Survival: 30 days
Procedure: For the experiments to determine survival rate following LD70/30 dose 6.11 Gy of γ-irradiation (TBI, ^60Co, 0.833Gy min-1), mice were grouped 20 (10 males and 10 females) per treatment cohorts; γ-radiation only cohort (positive control), γ-radiation with EC-18 10 mg/kg cohort, γ-radiation with EC-18 50 mg/kg cohort, and γ-radiation with EC-18 250 mg/kg cohort. EC-18 (Enzychem Lifesciences, Jaecheon, Republic of Korea) was suspended in PBS and orally administrated once a day, starting 1 day after irradiation. The positive control group was administrated PBS. The survival and body weight of the animals were recorded daily for 30 days.
All data are presented as the mean t standard deviation (SD). A paired Log rank (Mantel-Cox) test of survival curve was applied to estimate the significance on survival rate and to compare the duration of neutropenia between control and EC-18-treated cohorts. Average life span was calculated as the sum of the life span for all mice/total number of mice. For comparison of the statistical differences of more than two groups, one-way ANOVA test was used. All other statistical analyses were performed using a Student's paired t test and p values<0.05 were considered statistically significant.
The purpose of this study was to investigate the dose-effect of EC-18 on increasing the survival in mice after exposure to γ-radiation to the entire body. Eleven-week-old male and female BALB/c mice (10 females and 10 males; 20 animals per study group) were tested for the LD70/30 study. This study is consisted of 4 experimental groups; γ-radiation only group, and γ-radiation with EC-18 treatment groups at 10, 50, or 250 mg/kg.

[2] = test system: Balb/c mice, gamma-ray 6.11 Gy; assay: DAMP (HMGB1, S100A9) in blood of irradiated mice; format: in vivo, mouse; details: 50 and 250 mg/kg oral 3 days from day 1
Procedure: To confirm the proposed mechanism of EC-18 in the in vivo model, female Balb/c mice were irradiated with a gamma-ray of 6.11 Gy on day 0. Then, EC-18 (50 and 250 mg/kg) or PBS was orally administered for 3 consecutive days from day 1 and the mice were sacrificed on the third day. […] While, from the EC-18-treated group, the amount of DAMP reduced compared to the control group, supporting the proposed mechanism of EC-18. Establishment of a Balb/C Mouse Model for ARS

Sprague-Dawley rats = assay: Central nervous system of rats (FOB); format: in vivo, rat; details: doses up to 2000 mg/kg; to 24 hrs
Procedure: Sprague-Dawley rats (n=8 males/group) received control material (olive oil) or EC-18 at 500, 1000, and 2000 mg/kg. The functional observational battery test, which included observations inside the cage, in open space, and while holding in the hands, along with sensory-motor function, and body temperature measurements were performed before EC-18 administration and 0.5, 1, 3, 6, and 24 hrs after control or EC-18 administration.

[3] = In vitro metabolite screening, dog liver microsomes; format: in vitro ADME; details: N=2
Procedure: [^14C]EC-18 or the positive control (7-ethoxycoumarin; 7-EC) reacted with microsomes prepared from hepatocytes of rats, dogs, monkeys, and humans, with or without cofactors, for 60 and 120 min. Then, the residual EC-18 concentration over time was measured by LC-RID ([^14C]EC-18) or LC-MS/MS (7-EC) (FIG. 63 and FIG. 64).
The LC-RID chromatographic profiles of radioactive metabolites produced in the 2-hr incubation reaction mixtures of the same test systems A, B, and C used to assess the metabolic and non-metabolic elimination rates of EC-18 were compared to the LC-UV chromatographic profiles of the synthetic reference material. […] The relative radioactivity of EC-18 accounted for 42-67% of total radioactivity. The peaks designated as M2, M3, and M5 were also determined in all species, and their relative radioactivity accounted for 12-34% of total radioactivity. The peaks of M4 and M6 were determined in monkeys and humans. M1 was abundantly detected in all species, but it was assumed to be a peak of early elution. The LC-UV chromatograms of reaction mixtures in each test system (FIGS. 65A-65C) and the relative radioactivity of the screened metabolites are shown in Table 25.

CYP2C19 = CYP2C19 (Homo sapiens, UniProt P33261); assay: CYP enzyme inhibition in human liver microsomes, CYP2C19
Excerpt: CYP1A2, CYP2C9, CYP2C19, CYP2D6, and CYP3A4 are the CYP subfamily, which plays a critical role in the metabolism of most drugs.

OATP1B1 = target: T1, OATP1B1 (Homo sapiens, UniProt Q9Y6L6); assay: Drug transporter inhibition, OATP1B1; format: in vitro ADME; details: 100 nM [3H] estrone-3-sulfate; transfected HEK-293 cells
T1 construct: expressed in transfected cells; host or cells: HEK-293
Procedure: (§1) This study examined the potential of EC-18 to interact with the transporter proteins that have been known to be involved in the absorption of commercially available drugs. EC-18 was pre-incubated with HEK-293 cells and LLC-PK1 cells that were transfected with the genes of most drug transporters as follows: OATP1B1, OATP1B3, OAT1, OAT3 and OCT2, and BCRP and P-gp, respectively.

OATP1B3 = target: T2, OATP1B3 (Homo sapiens, UniProt Q9NPD5); assay: Drug transporter inhibition, OATP1B3; format: in vitro ADME; details: 100 nM [3H] estradiol-17β-D-glucuronide; transfected HEK-293 cells
T2 construct: expressed in transfected cells; host or cells: HEK-293
Procedure: as §1

Beagle dog = assay: Single-dose toxicity, Beagle dog; format: in vivo; details: Oral, Days 1, 5, 9, 13
Excerpt: Various toxicology studies have been performed. All studies were GLP-compliant unless otherwise noted.

[4] = EC-18 10 mg/kg oral daily from day 1, 10 mg/kg
[5] = EC-18 50 mg/kg oral daily from day 1, 50 mg/kg
[6] = EC-18 250 mg/kg oral daily from day 1, 250 mg/kg

CYP2C19, sequence (P33261 whole entry): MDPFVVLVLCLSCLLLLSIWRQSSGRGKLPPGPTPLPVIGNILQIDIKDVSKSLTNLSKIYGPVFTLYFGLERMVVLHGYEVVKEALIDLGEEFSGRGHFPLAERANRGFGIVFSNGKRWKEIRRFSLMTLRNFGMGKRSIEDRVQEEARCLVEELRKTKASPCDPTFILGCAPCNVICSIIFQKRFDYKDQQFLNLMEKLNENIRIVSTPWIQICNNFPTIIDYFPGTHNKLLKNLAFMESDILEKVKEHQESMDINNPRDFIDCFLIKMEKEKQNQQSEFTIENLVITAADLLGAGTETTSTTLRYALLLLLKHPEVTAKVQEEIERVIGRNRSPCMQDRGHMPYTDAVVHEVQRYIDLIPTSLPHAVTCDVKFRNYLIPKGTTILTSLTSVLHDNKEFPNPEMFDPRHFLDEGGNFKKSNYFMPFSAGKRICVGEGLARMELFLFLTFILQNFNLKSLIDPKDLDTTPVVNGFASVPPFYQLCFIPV
T1 sequence (Q9Y6L6 whole entry, species assumed): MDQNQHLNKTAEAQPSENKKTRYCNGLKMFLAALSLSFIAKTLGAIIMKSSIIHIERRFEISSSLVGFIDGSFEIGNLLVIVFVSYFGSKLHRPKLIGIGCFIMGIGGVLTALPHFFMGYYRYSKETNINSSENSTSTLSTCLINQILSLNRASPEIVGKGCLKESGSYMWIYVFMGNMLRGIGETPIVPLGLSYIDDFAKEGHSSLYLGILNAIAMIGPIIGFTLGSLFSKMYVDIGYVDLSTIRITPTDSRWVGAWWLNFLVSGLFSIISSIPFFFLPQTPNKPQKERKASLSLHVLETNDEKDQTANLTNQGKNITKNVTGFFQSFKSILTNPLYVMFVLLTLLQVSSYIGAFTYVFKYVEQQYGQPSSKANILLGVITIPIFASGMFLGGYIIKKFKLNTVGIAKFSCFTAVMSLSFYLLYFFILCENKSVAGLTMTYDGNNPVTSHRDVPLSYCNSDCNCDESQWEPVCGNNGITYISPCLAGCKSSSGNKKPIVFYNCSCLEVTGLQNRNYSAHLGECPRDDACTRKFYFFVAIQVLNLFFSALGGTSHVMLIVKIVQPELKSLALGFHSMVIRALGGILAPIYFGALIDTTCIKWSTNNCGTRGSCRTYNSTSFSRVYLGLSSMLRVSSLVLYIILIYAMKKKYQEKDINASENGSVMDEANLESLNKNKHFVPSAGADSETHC
T2 sequence (Q9NPD5 whole entry, species assumed): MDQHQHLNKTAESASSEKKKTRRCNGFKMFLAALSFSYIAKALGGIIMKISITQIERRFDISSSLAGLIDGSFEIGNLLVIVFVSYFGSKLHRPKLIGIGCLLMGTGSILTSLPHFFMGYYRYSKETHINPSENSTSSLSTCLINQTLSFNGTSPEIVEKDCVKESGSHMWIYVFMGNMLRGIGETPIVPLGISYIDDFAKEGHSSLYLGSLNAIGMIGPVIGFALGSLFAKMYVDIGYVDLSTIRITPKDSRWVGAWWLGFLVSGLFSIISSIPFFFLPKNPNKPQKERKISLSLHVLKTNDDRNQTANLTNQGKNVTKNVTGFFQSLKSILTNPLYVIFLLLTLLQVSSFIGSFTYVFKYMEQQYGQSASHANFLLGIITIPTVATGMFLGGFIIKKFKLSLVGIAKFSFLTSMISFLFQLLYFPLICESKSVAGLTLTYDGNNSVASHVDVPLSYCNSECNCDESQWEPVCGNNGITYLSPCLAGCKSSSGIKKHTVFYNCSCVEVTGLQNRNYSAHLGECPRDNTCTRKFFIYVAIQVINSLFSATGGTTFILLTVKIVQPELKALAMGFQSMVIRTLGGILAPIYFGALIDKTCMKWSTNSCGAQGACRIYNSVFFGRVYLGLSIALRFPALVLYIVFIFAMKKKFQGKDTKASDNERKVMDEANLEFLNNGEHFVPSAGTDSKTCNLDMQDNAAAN

CCCCC/C=C\C/C=C\CCCCCCCC(=O)OC(COC(C)=O)COC(=O)CCCCCCCCCCCCCCC (centres unmarked) [EC-18, 1-palmitoyl-2-linoleoyl-3-acetylglycerol]
radiation-induced weight loss vs positive control cohort ([1]; 250 mg/kg, from the 18th day after irradiation to the end): significantly reduced
improvement of survival vs control group ([1]; 50 mg/kg daily): 2 fold
improvement of survival vs control group ([1]; 250 mg/kg daily): 4 fold
≥10% Body Weight Loss, % ([1]; EC-18 10 mg/kg): 85%
≥20% Body Weight Loss, % ([1]; EC-18 10 mg/kg): 70%
Average life span [1, 4]: 22.3 days
Median survival [1, 4]: 17 days
No. of mice that survived/total [1, 4]: 4/20
Survivability / Survival [1, 4]: 40%
≥10% Body Weight Loss, % ([1]; EC-18 50 mg/kg): 55%
≥20% Body Weight Loss, % ([1]; EC-18 50 mg/kg): 35%
Average life span [1, 5]: 19.3 days
Median survival [1, 5]: 20 days
No. of mice that survived/total [1, 5]: 8/20
Survivability / Survival [1, 5]: 20%
≥10% Body Weight Loss, % ([1]; EC-18 250 mg/kg): 15%
≥20% Body Weight Loss, % ([1]; EC-18 250 mg/kg): 15%
Average life span [1, 6]: 17.9 days
Median survival [1, 6]: 30 days
No. of mice that survived/total [1, 6]: 16/20
severe weight loss ([1]; two higher doses (50 and 250 mg/kg)): significantly prevented severe weight loss
amount of DAMP (HMGB1, S100A9) in blood vs control group [2]: reduced
CNS (functional observational battery) (Sprague-Dawley rats): did not affect the CNS
Mean Peak Area in LC-RID ([3]; A (NADPH added), [14C]EC-18 2 hrs): 52.6%
Mean Peak Area in LC-RID ([3]; B (NADPH, PAPS, UDPGA added), 2 hrs): 54.3%
Mean Peak Area in LC-RID ([3]; C (no cofactor added), 2 hrs): 56.6%
IC50 (CYP2C19): 83.6 µM
IC50 (OATP1B1): > 32 µM
IC50 (OATP1B3): > 32 µM
Approximate lethal dose (Beagle dog): dose: >2000 mg/kg
mortality (Beagle dog; 0, 500, 1000, 1500, 2000 mg/kg): No dead animals
findings (Beagle dog; up to 2000 mg/kg): No specific findings
